Test results as given in ChEMBL document CHEMBL5728757, “Cyano substituted heteroarylpyrimidinone derivative, preparation method and use thereof” (2021).

Biological target: Acetyl-CoA carboxylase 1 (Homo sapiens, UniProt Q13085)
Experiment: etermination of IC50 of Inhibition of Enzymatic Activity of ACC1 and ACC2 by the Compound of the Present Disclosure: The degree of inhibition of the enzymatic activity of recombinant human ACC1, ACC2 proteins under in-vitro conditions by the preferred compounds of the present disclosure is determined by the following method.The principle of the method was based on the reaction of ACC protein-catalyzed acetyl-CoA to form malonyl-CoA. ATP was consumed during this reaction and ADP was produced. The produced ADP was reconverted into ATP by using ADP-Glo™ Kinase Kit from Promega. This part of ATP reacted with the luciferase-fluorescence in the kit, and generated chemiluminescent signals. Thus, by measuring the intensity of chemiluminescent signal, the amount of ADP produced in the catalytic reaction was reflected, thereby indirectly determining the enzymatic activity of ACC protein and the effect of the tested compound on the enzymatic activity. […]

IC50: 13.1 nM
Structure (SMILES): CCOc1ccc(F)cc1[C@H](Cn1c(=O)n(C(C)(C)C(N)=O)c(=O)c2c(C)c(C#N)sc21)OC1CCOCC1
